Experimental data: US20220117941A1, “CARBAMATE COMPOUND AND USE OF FORMULATION COMPRISING SAME IN PREVENTING, ALLEVIATING, OR TREATING ACUTE STRESS DISORDER OR POST-TRAUMATIC STRESS DISORDER” (SK BIOPHARMACEUTICALS CO., LTD., priority 2018, published 2022)
Where a name gives a salt, the structure may show the parent alone.

Legend:
[1] = system: blood corticoid; assay: Measurement of corticoid in blood of SPS-induced post-traumatic stress disorder rats (ELISA); type: in vivo, rats (Sprague-Dawley); conditions: SPS-induced PTSD rats; 30 mg/kg orally for 15 days; vs vehicle-treated PTSD-induced rats; FIG. 4
Method: Adult male rats (Sprague-Dawley, 200 to 230 g) were used. The experimental animals were maintained at a light-and-darkness cycle of 12 hours (illuminated from 7 pm to 7 am), a temperature of 22 to 25° C., a relative humidity of 40 to 60%, and free access to water and food. The animals were randomly divided into three groups as follows: • Eight (8) rats as a control group, orally administered with saline as a vehicle at a dose volume of 3 ml/kg (Group 1) • Seven (7) rats in which post-traumatic stress disorder was induced, and saline as a vehicle was then orally administered at a dose volume of 3 ml/kg (Group 2) • Seven (7) rats in which post-traumatic stress disorder was induced, and Test Compound was then orally administered at a dose of 30 mg/kg (3 ml/kg) (Group 3) […]
(§1) Post-traumatic stress disorder was induced in Group 2 and Group 3 as described above. […] All experimental animals were measured daily for changes in mortality and body weight to determine whether post-traumatic stress disorder was well induced. […]
Rats were sacrificed rapidly by decapitation on the day after the forced swimming test, and blood was quickly collected via the abdominal aorta. […] The corticoid concentration was measured by enzyme-linked immunoassay (ELISA) using a Novus Biologicals Corticosterone kit. The results were measured by means of an ELISA reader (MultiRead 400) to calculate the concentration of corticoid. […]

[2] = system: mice (CD-1); assay: Forced swimming test in mice with combination of Test Compound and selective serotonergic reuptake inhibitor; type: in vivo; conditions: CD-1 mice, 30 min after injection, FIG. 5
Method: Adult mice (CD-1) were used. The experimental animals were maintained at a light-and-darkness cycle of 12 hours (illuminated from 7 pm to 7 am), a temperature of 22 to 25° C., a relative humidity of 40 to 60%, and free access to water and food. The animals were randomly divided into four groups as follows: • Eight (8) mice as a control group, administered with intraperitoneal injection of saline as a vehicle at a dose volume of 10 ml/kg (Group 1) • Eight (8) mice as an experimental group, administered with intraperitoneal injection of Test Compound at a dose of 5 mg/kg (10 ml/kg) (Group 2) • Eight (8) mice as an experimental group, administered with intraperitoneal injection of fluoxetine hydrochloride at a dose of 10 mg/kg (10 ml/kg) (Group 3) • Eight (8) mice as an experimental group, administered with intraperitoneal injection of Test Compound at a dose of 5 mg/kg (10 ml/kg) and fluoxetine hydrochloride at a dose of 10 mg/kg (10 ml/kg) (Group 4)
To perform a forced swimming test in the mice of Groups 1 to 4, water of 25° C. was filled to a height of 20 cm in a transparent cylinder. […] The results are represented in FIG. 5.
Statistical analysis was carried out by using one-way ANOVA in Prism 7.04.

[3] = system: rats in which post-traumatic stress disorder was induced by single prolonged stress (SPS); assay: Forced swimming test in rats with post-traumatic stress disorder induced by single prolonged stress (SPS); type: in vivo, rats (Sprague-Dawley); conditions: SPS-induced PTSD rats; 30 mg/kg orally for 15 days; FIGS. 1 to 3
Method: Adult male rats (Sprague-Dawley, 200 to 230 g) were used. The experimental animals were maintained at a light-and-darkness cycle of 12 hours (illuminated from 7 pm to 7 am), a temperature of 22 to 25° C., a relative humidity of 40 to 60%, and free access to water and food. […]
as §1
To carry out a forced swimming test in the rats of Groups 1 to 3, water of 25° C. was filled to a height of 30 cm in a transparent cylinder (20 cm in diameter×50 cm in height). […] After 24 hours, rats were inserted into the cylinder for 5 minutes and the escape behavior of rats was recorded and measured using a video camera. […] Climbing behavior measured the time to climb upward, immobility behavior measured the time to not escape, and swimming behavior measured the time to move horizontally in the cylinder. […]

SMILES	blood corticoid concentration [1]	immobility time in forced swimming test (Test Compound alone) ([2]; 5 mg/kg intraperitoneal)	efficacy on symptoms associated with post-traumatic stress disorder (climbing, immobility and swimming behaviors in forced swimming test) [3]	immobility time in forced swimming test (fluoxetine alone) ([2]; fluoxetine hydrochloride 10 mg/kg intraperitoneal)
NC(=O)O[C@@H](Cn1ncnn1)c1ccccc1Cl [Test Compound]	statistically significant reduction	ineffective dose	showing efficacy on alleviating symptoms associated with post-traumatic stress disorder	
CNCCC(Oc1ccc(C(F)(F)F)cc1)c1ccccc1 (stereo not shown) [fluoxetine, fluoxetine hydrochloride, reference compound]				ineffective dose
